According to patent publication US7767714B2, “Method of preventing infectious diseases” (Ajinomoto Co., Inc., priority 2002, dated 2010):

Experiments:
[1] = test system: influenza virus A/Aichi/2/68 (H3N2); assay: Body weight change of mice after influenza virus infection (Example 1); assay type: in vivo, BALB/c female mice; details: mouse; feed with 0.5 wt % L-cystine and/or 0.2 wt % L-theanine for 2 weeks; 10^5 PFU nasally; versus control group on basic feed; FIG. 1
From the text: 4-week-old BALB/c female mice in the growth period were preliminarily raised on a solid feed (CRF-1 solid feed, Charles River Japan, inc.) for one week, then preliminarily raised on a powder feed (CRF-1 powder feed, Charles River Japan, inc.) for one week, and when they reached 6 weeks of age, the feed was changed to a feed containing 20 wt % of casein as a protein source (basic feed: composition: α-corn starch 68.3 wt %, casein 20 wt %, mineral mixture 3.5 wt %, vitamin mixture 1 wt %, cellulose powder 2 wt %, corn-oil 5 wt %, choline bitartrate 0.2 wt %), the same feed supplemented with 0.5 wt % of L-cystine as an amino acid, the same feed supplemented with 0.2 wt % of L-theanine as an amino acid, and the same feed supplemented with 0.5 wt % of L-cystine and 0.2 wt % of L-theanine as amino acids (the present invention), and further raised for 2 weeks. Those continuously raised on the basic feed were used as a control group. Ten mice were used for the test for each group.
At two weeks of the amino acid addition feed administration, 10^5 PFU influenza virus A/Aichi/2/68 (H3N2) was nasally inoculated, the body weight of the mice was measured immediately before virus inoculation and day 5 of infection.
Thus, it was clarified that a concurrent use of L-theanine enhanced the action of L-cystine.

[2] = test system: trichomonas; details: extremely high concentration of theanine, in vitro cultivation system; Nature 166, 352, 1950; cited from earlier work
[3] = test system: Staphylococcus aureus; details: J. Biol. Chem. 171, 387, 1947; Chem. Pharm. Bull. 28, 3549-3554, 1980; cited from earlier work
[4] = test system: Escherichia coli; details: Chem. Pharm. Bull. 28, 3549-3554, 1980; cited from earlier work

Compound	body weight change at day 5 of influenza virus infection [1]	trichomonas growth [2]	growth of Staphylococcus aureus [3]	growth of Escherichia coli [4]
N[C@@H](CSSC[C@H](N)C(=O)O)C(=O)O [L-cystine]	suppressed somewhat			
CCNC(=O)CC[C@H](N)C(=O)O [L-theanine]	body weight decrease of the same level as that of the control group			
CCNC(=O)CC[C@H](N)C(=O)O [theanine]		suppression of trichomonas growth	suppression of growth of Staphylococcus aureus	suppression of growth of Staphylococcus aureus and Escherichia coli
